# Assays:
# rat [1] = conditions: Developmental neurotoxicity study; sprague dawley; Injection; Intraperitoneal; dose end: 74 PND; group: cannot be grouped; reproductive / reproductive performance / aborted / aborted + developmental / offspring survival late / [other] / [other] + systemic / in …
# mouse [2] = conditions: Subchronic oral toxicity in rodents, b6c3f1, Feed, dose end: 12 week, group: systemic
# rat [3] = conditions: Combined chronic toxicity/carcinogenicity; fischer; Oral; Feed; dose end: 2 year; group: systemic; systemic / in life observation / body weight / body weight
# mouse [4] = conditions: Combined chronic toxicity/carcinogenicity, b6c3f1, Oral, Feed, dose end: 2 year, group: systemic
# rat [5] = conditions: Subchronic oral toxicity in rodents, fischer, Feed, dose end: 12 week, group: systemic
# mouse [6] = conditions: Prenatal developmental toxicity study; cd1; Oral; Gavage/Intubation; dose end: 17 GD; group: developmental; systemic / in life observation / clinical signs / aggressive behavior + systemic / organ weight / testes / absolute
# rat [7] = conditions: Multigenerational reproductive toxicity study, sprague dawley, Oral, Feed, dose end: 2 generation
# rat [8] = conditions: Subchronic oral toxicity in rodents, fischer, Gavage/Intubation, dose end: 13 week
# rat [9] = conditions: Carcinogenicity, fischer, Oral, Gavage/Intubation, dose end: 105 week, group: systemic
# mouse [10] = conditions: Subchronic oral toxicity in rodents, b6c3f1, Gavage/Intubation, dose end: 22 week, group: systemic, systemic / in life observation / clinical signs / aggressive behavior + systemic / in life observation / clinical signs / convulsions + …
# rat [11] = conditions: Subchronic oral toxicity in rodents, fischer, Gavage/Intubation, dose end: 13 week, group: systemic, systemic / in life observation / clinical signs / aggressive behavior + systemic / in life observation / clinical signs / hypersensitivity…
# mouse [12] = conditions: Subchronic oral toxicity in rodents, b6c3f1, Gavage/Intubation, dose end: 13 week
# [13] = systemic / in life observation / body weight / body weight gain
# [14] = systemic / in life observation / body weight / body weight + systemic / pathology microscopic / liver / carcinoma
# [15] = systemic / pathology microscopic / liver / carcinoma
# [16] = systemic / in life observation / body weight / body weight gain + systemic / pathology microscopic / bone marrow / hyperplasia + systemic / …
# [17] = group: offspring, systemic / in life observation / clinical signs / [other]
# [18] = group: parental, systemic / organ weight / liver / relative to body weight
# [19] = group: maternal, reproductive / reproductive performance / estrous cycle / abnormal
# [20] = group: systemic, systemic / in life observation / body weight / body weight + systemic / in life observation / body weight / body weight gain
# [21] = group: systemic, systemic / in life observation / clinical signs / aggressive behavior + systemic / in life observation / clinical signs / reactivity to …
# [22] = systemic / in life observation / clinical signs / [other] + systemic / in life observation / clinical signs / convulsions
# [23] = systemic / in life observation / clinical signs / [other] + systemic / in life observation / clinical signs / convulsions + systemic / …
# [24] = group: systemic, systemic / in life observation / clinical signs / aggressive behavior + systemic / in life observation / clinical signs / convulsions + …
compound,measurement,setting,value
NC(=O)NO [Hydroxyurea],LEL,rat [1],2000 mg/kg/day
same,LOAEL,rat [1],> 2000 mg/kg/day
same,NEL,rat [1],< 2000 mg/kg/day
same,NOAEL,rat [1],≥ 2000 mg/kg/day
O=S(=O)([O-])c1ccc(N=Nc2c(O)ccc3cc(S(=O)(=O)[O-])ccc23)cc1.[Na+].[Na+] [FD&C Yellow 6],LEL,mouse [2]; [13],900 mg/kg/day
same,LOAEL,mouse [2]; [13],15000 mg/kg/day
same,NEL,mouse [2]; [13],< 900 mg/kg/day
same,NOAEL,mouse [2]; systemic / in life observation / body weight / body weight gain + systemic / in life observation / body weight / body weight,7500 mg/kg/day
same,LEL,rat [3],1250 mg/kg/day
same,LOAEL,rat [3],> 1250 mg/kg/day
same,NEL,rat [3],625 mg/kg/day
same,NOAEL,rat [3],≥ 1250 mg/kg/day
same,LOAEL,mouse [4]; [14],> 3750 mg/kg/day
same,NOAEL,mouse [4]; [14],≥ 3750 mg/kg/day
same,LEL,mouse [4]; [15],1880 mg/kg/day
same,NEL,mouse [4]; [15],< 1880 mg/kg/day
same,LEL,rat [5]; [13],625 mg/kg/day
same,LOAEL,rat [5]; [13],2500 mg/kg/day
same,NEL,rat [5]; [16],300 mg/kg/day
same,NOAEL,rat [5]; [16],1250 mg/kg/day
"Clc1ccc(C(c2ccccc2Cl)C(Cl)(Cl)Cl)cc1 (stereo not given) [o,p'-DDT]",LEL,mouse [6],18 mg/kg/day
same,LOAEL,mouse [6],> 180 mg/kg/day
same,NEL,mouse [6],< 18 mg/kg/day
same,NOAEL,mouse [6],≥ 180 mg/kg/day
same,LEL,rat [7]; [17],10 mg/kg/day
same,LOAEL,rat [7]; [17],> 10 mg/kg/day
same,NEL,rat [7]; [17],1 mg/kg/day
same,NOAEL,rat [7]; [17],≥ 10 mg/kg/day
same,LEL,rat [7]; [18],10 mg/kg/day
same,LOAEL,rat [7]; [18],> 10 mg/kg/day
same,NEL,rat [7]; [18],1 mg/kg/day
same,NOAEL,rat [7]; [18],≥ 10 mg/kg/day
CCCCCc1cc(O)c2c(c1)OC(C)(C)[C@@H]1CCC(C)=C[C@@H]21 [1-trans-delta-9-Tetrahydrocannabinol],LEL,rat [8]; [19],15 mg/kg/day
same,LOAEL,rat [8]; [19],> 500 mg/kg/day
same,NEL,rat [8]; [19],5 mg/kg/day
same,NOAEL,rat [8]; [19],≥ 500 mg/kg/day
same,LOAEL,rat [8]; [20],15 mg/kg/day
same,LEL,rat [8]; [21],5 mg/kg/day
same,NEL,rat [8]; [21],< 5 mg/kg/day
same,NOAEL,rat [8]; [21],5 mg/kg/day
same,LOAEL,rat [9]; [22],12.5 mg/kg/day
same,NOAEL,rat [9]; [22],< 12.5 mg/kg/day
same,LEL,rat [9]; [23],12.5 mg/kg/day
same,NEL,rat [9]; [23],< 12.5 mg/kg/day
same,LEL,mouse [10],5 mg/kg/day
same,LOAEL,mouse [10],> 500 mg/kg/day
same,NEL,mouse [10],< 5 mg/kg/day
same,NOAEL,mouse [10],≥ 500 mg/kg/day
same,LEL,rat [11],5 mg/kg/day
same,LOAEL,rat [11],> 500 mg/kg/day
same,NEL,rat [11],< 5 mg/kg/day
same,NOAEL,rat [11],≥ 500 mg/kg/day
same,LEL,mouse [12]; [19],5 mg/kg/day
same,LOAEL,mouse [12]; [19],> 500 mg/kg/day
same,NEL,mouse [12]; [19],< 5 mg/kg/day
same,NOAEL,mouse [12]; [19],≥ 500 mg/kg/day
same,LOAEL,mouse [12]; [20],500 mg/kg/day
same,LEL,mouse [12]; [24],5 mg/kg/day
same,NEL,mouse [12]; [24],< 5 mg/kg/day
same,NOAEL,mouse [12]; [24],150 mg/kg/day

# From EPA's ToxRefDB 2
